In PubChem BioAssay AID493003 (Sanford-Burnham Center for Chemical Genomics, 2010):
pIC50: −log10 of the molar value. Active and inactive are the calls of the source. No rule for the calls is given here.

System: S. cerevisiae tim10-1 mutant growth, luminescence
Experiment: growth inhibitors of tim10-1 mutant yeast, dose response, luminescence, S. cerevisiae, uHTS hits (AID 493003);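 also: yeast growth measured after about 22 hours at 25 °C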

| SMILES | pIC50 | IC50 |
| --- | --- | --- |
| CCCc1cc(NCC2CCCO2)n2c(nc3ccccc32)c1C#N (stereo not given) | 4.57 |  |
| O=C(Nc1cc(Sc2ccccn2)cc([N+](=O)[O-])c1)c1cccc(F)c1 | 4.06 |  |
| CCCCCc1ccc(OCCCC[n+]2ccccc2)c(CCCCC)c1 | 4.61 |  |
| Cc1nn(-c2ccccc2)c(Cl)c1C(=O)N1CCN(c2ncnc3c2cnn3-c2ccccc2)CC1 |  | > 100 µM (inactive) |
| COc1cc(N=c2ssnc2Cl)c(OC)cc1Cl | 4.89 |  |
| Cc1[nH]nc2c1-c1nc3ccccc3nc1C(C)(C)C2 | 4.62 |  |
| Cc1nn(Cc2ccc(Cl)cc2)c(C)c1NC(=O)c1noc2c1CCCCC2 | 4.63 |  |
| CCOC(=O)C1CCCN(C2CC(=O)N(c3cccc(C(F)(F)F)c3)C2=O)C1 (stereo not given) | 4.86 |  |
| N#C/C(=C\c1c[nH]c2ccc(Br)cc12)c1ccccn1 | 4.48 |  |
| COc1ccc(-c2[nH]ncc2N=Nc2ccccc2)cc1 | 4.78 |  |
| CC1CCN(S(=O)(=O)c2ccc(NC(=O)Cc3cccs3)cc2)CC1 | 4.33 |  |
| Cc1ccccc1OCC(=O)Nc1ccc(S(=O)(=O)N2CCCC2)cc1 | 4.81 |  |
| CN1CCN(c2cc(N3CCc4ccccc4C3)c(F)cc2[N+](=O)[O-])CC1 | 4.15 |  |
| O=C(CSCC(=O)N1CCCCC1)Nc1nc(-c2ccc(Cl)s2)cs1 | 4.42 |  |
| S=c1[nH]nc(-c2ccco2)n1/N=C/C=C/c1ccccc1 | 4.37 |  |
| CCCN(CC1COc2ccccc2O1)C(=S)Nc1ccc(C)cc1 (stereo not given) | 4.47 |  |
| CN1CCN(c2ccccc2NC(=O)c2ccc(-c3cccc(Cl)c3)o2)CC1 | 4.67 |  |
| OC(COc1ccccc1)Cn1c2ccccc2c2ccccc21 (stereo not given) | 4.53 |  |
| C/C(=N\N=c1/sc2ccccc2n1C)c1ccccn1 | 4.34 |  |
| Cn1c2ccccc2c(=O)c2ccc(C#CC3(N)CCCCC3)cc21 | 4.57 |  |
| CSc1ccc(/C=C/C(=O)c2ccc(NC(=O)C(C)C)cc2)cc1 | 4.69 |  |
| Nc1nc(-c2ccc(Br)s2)c(Br)s1 | 4.63 |  |
| CC(C)c1ccc(S(=O)(=O)Nc2ccc(SC(F)F)cc2)cc1 | 4.34 |  |

| SMILES | pIC50 | IC50 |
| --- | --- | --- |
| O=c1oc2ccccc2c(O)c1/C=C1\C=Nc2ccccc21 | 5.20 |  |
| COc1c(OC(C)=O)ccc(/C=C/c2ccc3ccccc3n2)c1[N+](=O)[O-] | 4.36 |  |
| CCOC(=O)c1ccc(N2C(=O)C=CC2=O)cc1 | 5.56 |  |
| CC(C)C(c1nnnn1C1CCCC1)N1CCCc2ccccc21 (stereo not given) | 4.85 |  |
| O=C(NC(=S)NCc1ccccc1)c1ccccc1F | 4.18 |  |
| CC1CCN(C(=S)c2cn(Cc3ccccc3F)c3ccccc23)CC1 | 4.45 |  |
| N=c1c2c(-c3ccccc3)c(-c3ccccc3)n(Cc3ccccc3)c2ncn1CCO | 4.62 |  |
| Brc1ccc(-c2cn3c(n2)CCc2ccc4cccnc4c2-3)cc1 |  | > 100 µM (inactive) |
| CSc1ccccc1OCc1cc(C(=O)N2CCC(Oc3cccnc3)CC2)no1 | 4.40 |  |
| CC(C)Nc1nnc(Sc2ccc(Cl)cc2[N+](=O)[O-])s1 | 5.08 |  |
| O=C(CN1CCN(S(=O)(=O)c2ccc(Br)cc2)CC1)N/N=C/c1ccc(Br)s1 | 4.37 |  |
| COc1ccc(C)c2sc(N3CCCC3)nc12 | 4.66 |  |
| CC(C)C[C@@H](CSc1ccc(Br)cc1)N1CCN(CC(C)C)CCC1=O | 4.59 |  |
| Cc1nonc1C(=O)N/N=C/c1ccc(O)cc1 | 4.52 |  |
| O=C(Nc1nccs1)c1ccc(Br)c(S(=O)(=O)N2CCOCC2)c1 | 4.56 |  |
| Cc1nc(SCC(=O)N2CCN(c3ccccc3)CC2)c2oc3ccccc3c2n1 | 4.39 |  |
| CCn1c(SCc2c(F)cccc2Cl)nnc1-c1ccco1 | 4.61 |  |
| COc1cc(C(=O)O/N=C(\N)Cc2ccc([N+](=O)[O-])cc2)cc(OC)c1OC | 4.65 |  |
| COC(=O)c1ccc(N2C(=O)CC(N(C)CCc3ccc(OC)c(OC)c3)C2=O)cc1 (stereo not given) | 4.73 |  |
| CSc1nc(N)nc(-c2cccs2)c1C#N | 4.49 |  |
| CCOC(=O)c1ccc2[nH]c3c(c2c1)CCCC3 | 4.46 |  |
| N/C(Cc1ccc(Cl)cc1)=N\OC(=O)c1ccc2ccccc2c1 | 6.60 |  |
| COc1ccccc1N1C(=O)CC(Sc2n[nH]c(-c3cccc(C)c3)n2)C1=O (stereo not given) | 5.11 |  |

| SMILES | pIC50 | IC50 |
| --- | --- | --- |
| O=C(COC(=O)c1ccccc1C(=O)c1ccccc1)Nc1ccc(SC(F)F)cc1 | 4.14 |  |
| Cc1cc(C)n(-c2nc(-n3nc(C)cc3C)c3c4c(sc3n2)COC(C)(C)C4)n1 | 4.72 |  |
| COc1cccc(/C=C2\N=C(C3CCCCC3)OC2=O)c1OC | 4.44 |  |
| CN1CCCN(C(c2ccccc2)c2ccc(Cl)cc2)CC1 (stereo not given) | 4.51 |  |
| Cc1ccc(OCC(=O)O/N=C(\N)Cc2ccc([N+](=O)[O-])cc2)cc1C | 4.60 |  |
| CC(CNC(=O)COc1ccccc1)OC(=O)Nc1ccc(Cl)c(Cl)c1 (stereo not given) | 4.69 |  |
| O=C(CSc1nc2cc(Cl)ccc2s1)c1ccco1 | 4.30 |  |
| O=C(O)/C=C/C(=O)c1ccc2c(c1)CCc1ccccc1-2 | 4.96 |  |
| O=C(NNC(=S)Nc1cccc(C(F)(F)F)c1)c1ccc(Cl)cc1Cl | 5.07 |  |
| COc1ccc(-c2nn(-c3ccccc3)cc2/C=C(\CC(=O)O)c2nc3ccccc3s2)cc1OC | 4.22 |  |
| CCOC(=O)N1CCN(C(=O)c2ccc(CSc3ccc(Cl)cc3)cc2)CC1 | 4.13 |  |
| Cc1cc(C)cc(OCCCOc2cccc3cccnc23)c1 | 4.49 |  |
| COc1ccc(Cl)cc1NC(=S)NCCSc1ccc(C)cc1 | 4.75 |  |
| CC(C)(C)c1ccc(C(=O)CC(Sc2ccc(Cl)cc2)C(=O)O)cc1 (stereo not given) | 4.56 |  |
| O=C1C2C(c3ccccc3)CC=CC2[C@H](c2ccc3ccccc3c2)N1Cc1ccccc1 (stereo not given in full) | 4.64 |  |
| N/C(Cc1ccc(Cl)cc1Cl)=N\OC(=O)Cc1ccc(Cl)cc1 | 5.85 |  |
| CC1CCCCN1S(=O)(=O)c1ccc2c(c1)CCN2C(=O)C1CCC1 (stereo not given) | 4.21 |  |
| COc1ccc(-n2c(CNc3ccc(C)cc3)nnc2SCc2ccccc2)cc1 | 4.58 |  |
| CC(C)C1O/C(=N/C(=O)Nc2ccc(Cl)c(Cl)c2)NC1=O (stereo not given) | 4.49 |  |
| Cc1cc([N+](=O)[O-])ccc1-c1ccc(C2Nc3ccccc3C(=O)N2O)o1 (stereo not given) | 4.91 |  |
| CCOC(=O)c1cc(-c2cccs2)nc2c1c(C)nn2-c1ccccn1 | 4.96 |  |
| Cc1ccc(C(=O)c2no[n+]([O-])c2C(=O)c2ccc(C)cc2)cc1 | 4.82 |  |
| O=C(/C=C/c1c[nH]c2ccccc12)c1ccccc1 | 4.11 |  |

| SMILES | pIC50 | IC50 |
| --- | --- | --- |
| COc1ccc2cc3cc(C(=O)Nc4ccccc4N4CCN(C)CC4)oc3nc2c1 | 4.76 |  |
| CCOc1ccc(-c2n[nH]c(C)c2Oc2ccc(OC)cc2)c(O)c1 | 4.79 |  |
| O=C(Nc1ccccc1)c1cccnc1NCCc1ccccc1 | 4.13 |  |
| C/C(=N\NC(=S)Nc1cccc(C)c1)c1cc2ccccc2o1 | 4.32 |  |
| Nc1cc2c(cc1C(=O)c1ccc(Cl)cc1)OCCO2 | 4.42 |  |
| Cc1[nH]c2ccccc2c1C(O)CN1CCN(c2cccc(C(F)(F)F)c2)CC1 (stereo not given) | 4.67 |  |
| O=C1CC(Sc2nnnn2-c2ccccc2)C(=O)N1c1cccc(Cl)c1 (stereo not given) | 5.04 |  |
| N#C/C(=C\c1ccccc1)C(=O)Nc1cc(S(=O)(=O)N2CCOCC2)ccc1N1CCCC1 | 4.50 |  |
| Cc1ccc(Nc2nc(Cl)nc(N(C)C#N)n2)cc1 | 4.60 |  |
| COc1ccc2cc3cc(C(=O)NCCN4CCc5ccccc5C4)oc3nc2c1 | 6.16 |  |
| CC(C)c1ccc(S(=O)(=O)N2CCN(CC(=O)Nc3ccc4c(c3)OCO4)CC2)cc1 | 4.12 |  |
| CN(C1CCCCC1)S(=O)(=O)c1ccc(NC(=O)c2ccco2)cc1 | 4.42 |  |
| CCN(CC1COc2ccccc2O1)C(=S)Nc1ccccc1 (stereo not given) | 4.19 |  |
| CCOC(=O)c1sc(-c2ccc(Br)cc2)cc1N | 4.73 |  |
| Cc1cccc2nc(COc3ccc(Cl)c4cccnc34)cn12 | 4.35 |  |
| CC(/C=N/Nc1nc(C)cc(C)n1)=C\c1ccc(C(C)C)cc1 | 4.41 |  |
| COc1ccc(NS(=O)(=O)c2ccc3oc4ccccc4c3c2)cn1 | 4.55 |  |
| Oc1c(Cl)cc(Cl)cc1/C=C/c1ccc2cccc(O)c2n1 | 4.37 |  |
| Cc1nn(C)c(C(=O)NC(=S)Nc2ccc([N+](=O)[O-])cc2)c1Cl | 4.13 |  |
| COC(=O)N1C(=O)[C@@](c2ccccc2)(C2CCCCC2)N1C(=O)OC | 4.21 |  |
| COc1ccc(C2NC(=S)NC3=C2CCc2cc(OC)ccc23)cc1 (stereo not given) | 4.44 |  |
| CCC(CO)Nc1nc2ccc(Cl)cc2c2ccccc12 (stereo not given) | 4.77 |  |
| CCCCOc1cccc(-c2cc(C(=O)NNC(=S)NCC)c3ccccc3n2)c1 | 4.05 |  |

| SMILES | pIC50 | IC50 |
| --- | --- | --- |
| CCCCC(CC)C(=O)Nc1ncc([N+](=O)[O-])s1 (stereo not given) | 4.71 |  |
| FC(F)C(F)(F)C(F)(F)C(F)(F)c1cc(-c2ccccc2)n[nH]1 | 4.82 |  |
| CCOC(=O)c1ccc(NC(=O)c2cccc3c2C(=O)N(CC2CCCO2)C3)cc1 (stereo not given) | 4.26 |  |
| Cc1cc(C)c(CSc2ncc(-c3ccc([N+](=O)[O-])cc3)[nH]2)c(C)c1 | 4.89 |  |
| O=C(Nc1ccc(OCC(F)(F)C(F)F)c(C(F)(F)F)c1)c1ccc(Cl)cc1 | 4.28 |  |
| CCC(=NCc1ccccc1)c1c(C(F)(F)F)[nH]n(-c2nc3ccccc3s2)c1=O |  | > 100 µM (inactive) |
| CC(NC(=O)c1cccc(Cl)c1)C1CC2CCC1C2 (stereo not given) | 4.37 |  |
| COc1cc(/C=C/c2ccc3cccc(O)c3n2)c(Br)cc1O | 4.81 |  |
| O=C(CN1CCN(S(=O)(=O)c2ccc(Cl)cc2)CC1)Nc1ccc2c(c1)CCC2 | 4.60 |  |
| COc1ccc(-c2cn3c(C)c(C(=O)N4CCc5ccccc5C4)sc3n2)cc1 | 4.40 |  |
| COc1ccc(OCC(=O)Nc2ccc(S(=O)(=O)N3CCCCC3)cc2)cc1 | 4.44 |  |
| CCCCCCCCCCOC(=O)Cn1c(COc2ccccc2OC)[n+](C)c2ccccc21 | 4.96 |  |
| Cc1ccc(C(=O)NC(=S)Nc2ccccc2C)cc1 | 4.35 |  |
| O=C(C1CCC1)N1CCc2cc(S(=O)(=O)N3CCN(c4ccccn4)CC3)ccc21 | 4.61 |  |
| O=C(c1ccc2c3n(nc2c1)-c1ccccc1CO3)N1CCCCC1 | 4.87 |  |
| COc1ccccc1C/C(N)=N/OC(=O)c1ccco1 | 4.43 |  |
| O=[N+]([O-])c1cccc(NC(=S)NCCc2ccccc2)c1 | 4.48 |  |
| O=C(Nc1ccc(N2CCN(C(=O)c3ccccc3)CC2)c(Cl)c1)c1ccc(Br)o1 | 4.38 |  |
| CCSc1nc2ccccc2n1C(=O)/C=C\c1ccc(OC)c(OC)c1 | 4.98 |  |
| CN(c1ccccc1)C1CCCCC1NS(=O)(=O)c1ccc(Cl)cc1 (stereo not given) | 4.18 |  |
| CC(Oc1ccc(Cl)cc1Cl)C(=O)NC1=NN(c2ccccc2)C(=O)C1 (stereo not given) | 4.82 |  |
| COc1ccc(NC2CCN(C3CC(=O)N(c4ccc(F)c(Cl)c4)C3=O)CC2)cc1 (stereo not given) | 4.98 |  |
| Oc1ccccc1-c1csc(-c2ccccc2)n1 | 4.58 |  |
